Test results from PMC12769565, “Design, synthesis and biological activity of glycoconjugated ADAMTS5 exosite inhibitors: applications in osteoarthritis and ovarian cancer models” (Scientific Reports, 2025).
pEC50, pIC50: −log10 of the molar value.

Assays:
HEK293 = system: HEK293; set-up: method as in ChEMBL; conditions: ref ChEMBL, cited from earlier work; for pEC50: read-out: EC50 (Standard Value)
ADAMTS5 = conditions: reported zinc-chelating inhibitors; cited from earlier work
[1] = system: porcine cartilage explants; experiment: Cell viability MTS assay; format: cell-based, pig; conditions: 100 µM; 72 h; vs DMSO control
Experimental: Porcine articular cartilage from the joints of 3–9 month old pigs was supplied by a local abattoir within 2 h of slaughter and dissected into small pieces approximately 3 mm long and 3–4 mm wide. Each piece weighed roughly 10 mg. After dissection, the cartilage was allowed to acclimatize for 24 h at 37 °C under 5% CO2 in Dulbecco’s Modified Eagle Medium (DMEM) containing 100 U/ml penicillin, 100 µg/ml streptomycin, 10% fetal bovine serum (FBS).
(§1) Cell viability was assessed using CellTiter® 96 Aqueous One Solution Cell Proliferation Assay (Promega, G3582) following the manufacturer’s protocol. The assay is based on the reduction of [3-(4,5-dimethylthiazol-2-yl)-5-(3-carboxymethoxyphenyl)-2-(4-sulfophenyl)-2 H-tetrazolium] (MTS) and phenazine ethosulfate into formazan. Compounds 2 and 4b, GM6001 (Merck, 364206) (10–100 µM), or DMSO control were incubated in 48-well Nunc™ plates (Thermo Fisher Scientific,150687) with HEK293T cells, human non-OA chondrocytes, porcine cartilage explants, or human OA cartilage explants for 72 h. At least 3 independent experiments were carried out with 3 technical replicates each. For experiments involving human samples, independent experiments were carried out on 3 different donors. Absorbance at 490 nm was measured on a SpectraMax i3x Multi-Mode Platform (Molecular Devices). Cell viability was normalized to DMSO controls.

HEK293T cells = experiment: Cell viability MTS assay; format: cell-based, human; conditions: 100 µM; 72 h; vs DMSO control
Experimental: as §1

[2] = system: human non-OA chondrocytes; experiment: Cell viability MTS assay; format: cell-based; conditions: 100 µM; 72 h; vs DMSO control
Experimental: Non-OA human chondrocytes were isolated from knee cartilage tissues obtained from the Stanmore BioBank, Institute of Orthopaedics, Royal National Orthopaedic Hospital, Stanmore, UK, from 3 donors following informed consent and approval by the Royal Veterinary College Ethics and Welfare Committee (Institutional approval URN 2012 0048 H) as before.
as §1

ADAMTS4 [3] = target: T1, ADAMTS4 (Homo sapiens, UniProt O75173); experiment: Versicanase assay (V1-5GAG, versikine sandwich ELISA); format: biochemical; conditions: compared to DMSO control
T1 construct: Human recombinant full-length FLAG-tagged ADAMTS4 and ADAMTS5 were expressed in HEK293T cells; FLAG; made in house; host or cells: HEK293T cells
T1 sequence (O75173 213-837): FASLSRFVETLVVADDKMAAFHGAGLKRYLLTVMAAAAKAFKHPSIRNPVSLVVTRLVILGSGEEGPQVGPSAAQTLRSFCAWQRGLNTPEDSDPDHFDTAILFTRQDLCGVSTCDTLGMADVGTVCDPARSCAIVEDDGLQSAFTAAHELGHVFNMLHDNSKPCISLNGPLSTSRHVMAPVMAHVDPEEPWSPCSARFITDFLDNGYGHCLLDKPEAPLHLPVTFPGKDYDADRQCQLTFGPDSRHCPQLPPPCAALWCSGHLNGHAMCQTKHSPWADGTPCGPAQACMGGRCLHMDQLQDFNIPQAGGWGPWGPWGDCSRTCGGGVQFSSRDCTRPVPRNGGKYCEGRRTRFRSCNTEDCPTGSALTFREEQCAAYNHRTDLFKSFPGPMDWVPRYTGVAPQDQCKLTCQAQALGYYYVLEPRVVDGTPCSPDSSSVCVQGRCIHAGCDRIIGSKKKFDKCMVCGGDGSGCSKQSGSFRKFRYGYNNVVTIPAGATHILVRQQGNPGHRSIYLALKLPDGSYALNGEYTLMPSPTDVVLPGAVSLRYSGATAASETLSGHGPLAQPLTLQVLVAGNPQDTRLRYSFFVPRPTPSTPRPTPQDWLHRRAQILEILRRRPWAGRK
Experimental: (§2) Human recombinant full-length FLAG-tagged ADAMTS4 and ADAMTS5 were expressed in HEK293T cells (Thermo Fisher Scientific) and purified by anti-FLAG immunoaffinity chromatography as before. Concentrations of active proteases were determined by active-site titrations with known concentrations of TIMP-3 (Bio-Techne, 973-TM-010), using QF peptides as substrates. V1-5GAG, a truncated version of versican V1 isoform comprising residues 21–694 and containing a C-terminal 6x His tag[67], was expressed in HE293T cells and purified by immobilized metal affinity chromatography as before.
Compounds 1–4 (100 µM) or DMSO were incubated with ADAMTS4 (5 nM) or ADAMTS5 (0.4 nM) for 2 h at 37 °C, before addition of V1-5GAG (50 nM). At each time point, reactions were stopped by addition of ethylenediaminetetraacetic acid and ADAMTS-generated versican fragments (versikine) quantified by sandwich ELISA as before[29],[30],[38] using anti-DPEAAE neoepitope antibody (Life Technologies, PA1-1748 A, 5 µg/ml) and polyclonal anti-versican antibody (Abcam, ab171887, 3 µg/ml). For each reaction, the amount of versikine generated was derived from a standard curve (0–1.56 nM) of V1-5GAG completely digested with ADAMTS5. Initial velocities were calculated from the concentration of versikine generated as a function of reaction time. Percent of inhibition was calculated from the DMSO control reactions. IC50 values were determined using the formula: vi/v0 = 1/(1 + [I]/IC50) where vi is the initial velocity of substrate cleavage in the presence of the inhibitor at concentration [I] and v0 is the initial velocity in the presence of an equal concentration (v/v) of DMSO.

ADAMTS4 [4] = target: T1, ADAMTS4; experiment: QF peptide cleavage assay (peptidolytic activity); format: biochemical; conditions: compared to DMSO control
Experimental: as §2
QF peptide cleavage assays were conducted in TNC-B (50 mM Tris–HCl, pH 7.5, 150 mM NaCl, 10 mM CaCl2, and 0.02% NaN3) on a SpectraMax i3x Multi-Mode Platform (Molecular Devices, UK) in a total volume of 20 µl at 37℃ as before. ADAMTS4 (3.5 nM) or ADAMTS5 (4 nM) were incubated with compounds 1–4 (100 µM, diluted in TNC-B from 10 mM DMSO stocks) or DMSO for 1 h at 37 ℃ before addition of QF peptides fluorescein-5(6)-carbonyl-[…]N, N,N0,N0-tetramethyl-6-carboxyrhodamine, and fluorescein-5(6)-carbonyl-Thr-Glu-Ser-Glu - […]N, N,N0,N0-tetramethyl-6-carboxyrhodamine, respectively, each at 40 µM. Fluorescence intensity was recorded with an excitation wavelength of 485 nm and an emission wavelength of 535 nm every min for 2 h, expressed as relative fluorescence units and normalized against a blank containing only buffer and substrate. Fluorescence values were converted into residual activity by fixing as 100% the activity of the reactions containing an equal concentration (v/v) of DMSO instead of compound (DMSO control).

In the case of `COc1cc(/C=C/C(=O)CC(=O)/C=C/c2ccc(O)c(O)c2)ccc1O` [CHEMBL103410], the pEC50 (HEK293) is given as 4.44.
In the case of `C[C@H]1CN(C(=O)CC[C@@]2(C3CC3)NC(=O)NC2=O)CCN1c1cc(F)cc(F)c1` [B, GLPG 1972], the pIC50 (ADAMTS5) is given as 7.72.
For `CC1C(NS(=O)(=O)N2CCc3c(nc4cc(F)ccn34)C2)(C(=O)O)C1(C)c1ccccc1` (centres unmarked) [A], the pIC50 (ADAMTS5) is listed as 8.08.
In the case of `CNC(=O)[C@H](Cc1c[nH]c2ccccc12)NC(=O)[C@@H](CC(=O)NO)CC(C)C` [GM6001, reference compound], the “decrease of cell viability” value [1] was “did not exhibit cytotoxicity”, the “inhibition of cell viability” value (HEK293T cells) was “Neither 2, nor the broad-spectrum zinc-chelating metalloproteinase inhibitor GM6001[40] had an effect on cell viability” and the “inhibition of cell viability” value [2] was “No significant effect”.
For `O=C(/C=C/c1ccccc1)c1ccc(O)cc1O` [CHEMBL105310], the pIC50 (HEK293; read-out: IC50 (Standard Value)) is given as 3.96.
For `CCC(C)N(Cc1cn(CCCO[C@@H]2O[C@H](CO[C@@H]3O[C@H](CO)[C@@H](O[C@@H]4O[C@H](CO)[C@H](O)[C@H](O)[C@H]4O)[C@H](O)[C@H]3O)[C@@H](O)[C@H](O)[C@H]2NC(C)=O)nn1)S(=O)(=O)c1ccc(-c2ccccc2)cc1` (stereo partly drawn) [compound 4, N-((2R,3R,4R,5 S,6R)-2-(3-(4-((N-(sec-butyl)-[1,1’-biphenyl]-4-sulfonamido)methyl)-1 H-1,2,3-triazol-1-yl)propoxy)-6-((((2R,3R,4R,5 S,6R)-3,4-dihydroxy-6-(hydroxymethyl)-5-(((2 S,3R,4 S,5R,6R)-3,4,5-trihydroxy-6-(hydroxymethyl)tetrahydro-2 H-pyran-2-yl)oxy)tetrahydro-2 H-pyran-2-yl)oxy)methyl)-4,5-dihydroxytetrahydro-2 H-pyran-3-yl)acetamide], the inhibition at 100 µM (ADAMTS4 [3]) was 64%.
For `C=CCCNc1nc(NCc2csc(-c3cccs3)n2)nc(N2CCC[C@@H]2CNS(=O)(=O)c2ccc(CCC)cc2)n1` [C], the pIC50 (ADAMTS5) is listed as 7.52.
Molecule `CCC(C)N(Cc1cn(CCCCCCO[C@@H]2O[C@H](CO)[C@@H](O)[C@H](O)[C@H]2NC(C)=O)nn1)S(=O)(=O)c1ccc(-c2ccccc2)cc1` (stereo partly drawn) [compound 1, N-((2R,3R,4R,5 S,6R)-2-((6-(4-((N-(sec-butyl)-[1,1’-biphenyl]-4-sulfonamido)methyl)-1H-1,2,3-triazol-1-yl)hexyl)oxy)-4,5-dihydroxy-6-(hydroxymethyl)tetrahydro-2 H-pyran-3-yl)acetamide] has an inhibition at 100 µM (ADAMTS4 [4]) of 42%.
For `O=C(/C=C/c1ccc(O)cc1)CC(=O)/C=C/c1ccc(O)cc1` [CHEMBL105350], the pEC50 (HEK293) is listed as 3.70.
